Assay results reported in patent US20230278972A1, “SUBSTITUTED HALOALKYL SULFONANILIDE HERBICIDES” (FMC Corporation, priority 2020, published 2023).

Experiments:
Format in all cases: in vivo
[1] = system: corn (Zea mays); experiment: Test A1 preemergence, corn
Summary of the method: (§1)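 Herbicidal response was scored on plants treated either preemergence, by directed spray onto soil of a loam–sand blend after sowing, or postemergence on potted plants at the one- to two-leaf stage, 2–10 cm high. Test chemicals were carried in a non-phytotoxic solvent mix with surfactant.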

[2] = system: rice (Oryza sativa); experiment: Test B1 flooded paddy test, rice; details: 250 g ai/ha, Flood, applied to paddy water, 2-leaf stage, visually evaluated after 10 to 14 days
Source text: (§2) A dash (-) response means no test result.

[3] = system: Foxtail, Giant (giant foxtail, Setaria faberi); experiment: Test A1 postemergence, Foxtail, Giant; details: Postemergence
Summary of the method: (§3)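 Plants were grown in a loam soil/sand blend, with test chemicals formulated in a non-phytotoxic solvent mixture containing surfactant. Preemergence treatment (corn) was a directed soil spray at planting. Postemergence treatment was applied to plants 2 to 10 cm tall at the one- to two-leaf stage.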

[4] = system: blackgrass (Alopecurus myosuroides); experiment: Test A1 postemergence, blackgrass; details: Postemergence, 0 to 100 scale (0 no effect, 100 complete control)
Summary of the method: as §3

[5] = system: horseweed (Erigeron canadensis); experiment: Test A1 postemergence, horseweed; details: Postemergence
Summary of the method: as §3

[6] = system: Foxtail, Giant (giant foxtail, Setaria faberi); experiment: Test A1 preemergence, Foxtail, Giant
Summary of the method: as §1

[7] = system: Ryegrass, Italian (Italian ryegrass, Lolium multiflorum); experiment: Test A1 preemergence, Ryegrass, Italian
Summary of the method: as §1

[8] = system: wheat (Triticum aestivum); experiment: Test A1 postemergence, wheat; details: Postemergence
Summary of the method: as §3

[9] = system: soybean (Glycine max); experiment: Test A1 preemergence, soybean
Summary of the method: as §1

[10] = system: barnyardgrass (Echinochloa crus-galli); experiment: Test B1 flooded paddy test, barnyardgrass; details: 250 g ai/ha, Flood, applied to paddy water, 2-leaf stage, visually evaluated after 10 to 14 days
Source text: as §2

[11] = system: Pigweed, Palmer (palmer amaranth, palmer pigweed, Amaranthus palmeri); experiment: Test A1 preemergence, Pigweed, Palmer
Summary of the method: as §1

[12] = 31 g ai/ha, 0 to 100 scale (0 no effect, 100 complete control)
[13] = 125 g ai/ha, 0 to 100 scale, 0 no effect, 100 complete control
[14] = 31 g ai/ha, 0 to 100 scale (0 no effect, 100 complete control), 10 days

| Compound | Plant response rating, Corn [1, 12] | Plant response rating, Corn [1, 13] | Plant response rating, Rice (0 to 100 scale, 0 is no effect, 100 is complete control) [2] | Plant response rating, Foxtail, Giant [3, 14] | Plant response rating, Foxtail, Giant ([3]; 125 g ai/ha, 0 to 100 scale) | Plant response rating, Blackgrass ([4]; 31 g ai/ha, 10 days) | Plant response rating, Blackgrass ([4]; 125 g ai/ha) | Plant response rating, Horseweed [5, 14] | Plant response rating, Horseweed ([5]; 125 g ai/ha, 0 to 100 scale) | Plant response rating, Foxtail, Giant [6, 12] | Plant response rating, Foxtail, Giant [6, 13] | Plant response rating, Ryegrass, Italian [7, 12] | Plant response rating, Ryegrass, Italian [7, 13] | Plant response rating, Wheat [8, 14] | Plant response rating, Wheat ([8]; 125 g ai/ha, 0 to 100 scale) | Plant response rating, Soybean [9, 12] | Plant response rating, Soybean [9, 13] | Plant response rating, Barnyardgrass (0 to 100 scale, 0 is no effect, 100 is complete control) [10] | Plant response rating, Pigweed, Palmer [11, 12] | Plant response rating, Pigweed, Palmer [11, 13] |
| --- | --- | --- | --- | --- | --- | --- | --- | --- | --- | --- | --- | --- | --- | --- | --- | --- | --- | --- | --- | --- |
| Cc1c(C(=O)N2CCOCC2)cc(NS(=O)(=O)C(F)(F)F)c(Cl)c1F [Compound 321] | 0 | 30 | 10 | 0 | 0 | 10 | 10 | 70 | 80 | 30 | 100 | 60 | 60 | 0 | 10 | 60 | 60 | 15 | 90 | 100 |
| Cc1cc(C)c(C2=NOC(OCC(C)C)C2)cc1NS(=O)(=O)C(F)(F)F (stereo not shown) [Compound 322] | 0 | 30 | 0 | 0 | 40 | 20 | 50 | 0 | 40 | 40 | 80 | 60 | 90 | 0 | 30 | 0 | 0 | 55 | 40 | 90 |
| CCCCOC1CC(c2cc(NS(=O)(=O)C(F)(F)F)c(C)cc2C)=NO1 (stereo not shown) [Compound 323] | 0 | 10 | 0 | 10 | 50 | 0 | 50 | 0 | 50 | 50 | 90 | 40 | 90 | 0 | 50 | 0 | 0 | 0 | 90 | 100 |
| CCOC(=O)N(c1cc(C(=O)N2CCOCC2)c(C)c(C)c1C)S(=O)(=O)C(F)(F)F [Compound 325] | 0 | 40 | 15 | 30 | 90 | 0 | 90 | 90 | 90 | 30 | 100 | 40 | 90 | 30 | 50 | 0 | 60 | 95 | 80 | 100 |
| Cc1c(C(=O)N2CCCCC2)cc(N(COC(=O)C(C)(C)C)S(=O)(=O)C(F)(F)F)c(C)c1C [Compound 329, [[(Trifluoromethyl)sulfonyl][2,3,4-trimethyl-5-(1-piperidinylcarbonyl)phenyl]amino]methyl 2,2-dimethylpropanoate] | 0 | 0 | 20 | 10 | 70 | 0 | 30 | 20 | 90 | 30 | 50 | 0 | 0 | 0 | 0 | 0 | 0 | 95 | 10 | 50 |
| CCOC(=O)N(c1cc(C(=O)N2CCCCC2)c(C)c(C)c1C)S(=O)(=O)C(F)(F)F [Compound 330, Ethyl N-[(trifluoromethyl)sulfonyl]-N-[2,3,4-trimethyl-5-(1-piperidinylcarbonyl)phenyl]carbamate] | 0 | 0 | 0 | 20 | 80 | 0 | 40 | 80 | 90 | 80 | 100 | 0 | 90 | 0 | 30 | 0 | 30 | 95 | 70 | 80 |
| Cc1c(C(=O)N2C[C@@H](C)O[C@@H](C)C2)cc(N(COC(=O)C(C)(C)C)S(=O)(=O)C(F)(F)F)c(C)c1C [Compound 331] | 0 | 0 | 0 | 20 | 80 | 0 | 50 | 70 | 80 | 0 | 70 | 0 | 0 | 0 | 50 | 0 | 10 | 98 | 0 | 30 |
| CCOC(=O)N(c1cc(C(=O)N2C[C@@H](C)O[C@@H](C)C2)c(C)c(C)c1C)S(=O)(=O)C(F)(F)F [Compound 332] | 0 | 10 | 0 | 30 | 90 | 0 | 90 | 60 | 80 | 100 | 100 | 0 | 20 | 10 | 50 | 20 | 70 | 98 | 60 | 90 |
